Measurements from ChEMBL document CHEMBL1201862, “PubChem BioAssay data set” (2004).
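Interpolation was linear, between the two tested concentrations surrounding the appropriate level; five concentrations were tested over 48 hours in 96-well plates. GI50: concentration for 50% inhibition of growth.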 Activity calls are given as the source filed them. Rule as the data show it: active = GI50 up to about 1.1 µM and inactive = higher.

Key:
Test in all cases: growth of human tumour cells (NCI), 48 h
NCI-H226 = tested on: NCI-H226
LOX IMVI = tested on: LOX IMVI
HOP-62 = tested on: HOP-62
SK-OV-3 = tested on: SK-OV-3
MDA-MB-231 = tested on: MDA-MB-231
HL-60 = tested on: HL-60
PC-3 = tested on: PC-3
UACC-62 = tested on: UACC-62
RXF 393 = tested on: RXF 393
SF-268 = tested on: SF-268
NCI-H23 = tested on: NCI-H23
T47D = tested on: T47D
Malme-3M = tested on: Malme-3M
TK-10 = tested on: TK-10
Hs-578T = tested on: Hs-578T
MCF7 = tested on: MCF7
NCI-H460 = tested on: NCI-H460
SN12C = tested on: SN12C
HOP-92 = tested on: HOP-92

Compound | GI50 (NCI-H226) | GI50 (LOX IMVI) | GI50 (HOP-62) | GI50 (SK-OV-3) | GI50 (MDA-MB-231) | GI50 (HL-60) | GI50 (PC-3) | GI50 (UACC-62) | GI50 (RXF 393) | GI50 (SF-268) | GI50 (NCI-H23) | GI50 (T47D) | GI50 (Malme-3M) | GI50 (TK-10) | GI50 (Hs-578T) | GI50 (MCF7) | GI50 (NCI-H460) | GI50 (SN12C) | GI50 (HOP-92)
NCCCCNC1(c2cc3ccccc3s2)CCCCC1 | 16.5 µM (inactive) | 1.71 µM (inactive) | 6.03 µM (inactive) | 14.5 µM (inactive) | 3.22 µM (inactive) | 3.09 µM (inactive) | 4.9 µM (inactive) | 1.91 µM (inactive) | 3.07 µM (inactive) | 6.24 µM (inactive) | 14.2 µM (inactive) | 2.29 µM (inactive) | 1.88 µM (inactive) | 3.87 µM (inactive) | 4.51 µM (inactive) | 2.88 µM (inactive) | 2.62 µM (inactive) | 12.2 µM (inactive) | 5.32 µM (inactive)
CN1CCc2nc(N)nc(-c3nc(N)nc4c3CN(C)CC4)c2C1 | > 100 µM (inactive) | > 100 µM (inactive) | > 100 µM (inactive) | > 100 µM (inactive) | > 100 µM (inactive) | > 100 µM (inactive) | > 100 µM (inactive) | > 100 µM (inactive) | > 100 µM (inactive) | > 100 µM (inactive) | > 100 µM (inactive) | > 100 µM (inactive) | > 100 µM (inactive) | > 100 µM (inactive) | > 100 µM (inactive) | > 100 µM (inactive) | > 100 µM (inactive) | > 100 µM (inactive) | > 100 µM (inactive)
CC(C)(C)COS(=O)OCC(C)(C)C | > 100 µM (inactive) | > 100 µM (inactive) | > 100 µM (inactive) | > 100 µM (inactive) | > 100 µM (inactive) | > 100 µM (inactive) | > 100 µM (inactive) | > 100 µM (inactive) | > 100 µM (inactive) | > 100 µM (inactive) | > 100 µM (inactive) | > 100 µM (inactive) | > 100 µM (inactive) | > 100 µM (inactive) | > 100 µM (inactive) | > 100 µM (inactive) | > 100 µM (inactive) | > 100 µM (inactive) | > 100 µM (inactive)
CN(C)c1ccc(/C=C(\NC(=O)c2ccccc2)C(=O)NC(CCC(=O)O)C(=O)O)cc1 (stereo not drawn) | > 100 µM (inactive) | > 100 µM (inactive) | > 100 µM (inactive) | > 100 µM (inactive) | > 100 µM (inactive) | > 100 µM (inactive) | > 100 µM (inactive) | > 100 µM (inactive) | > 100 µM (inactive) | > 100 µM (inactive) | > 100 µM (inactive) | > 100 µM (inactive) | > 100 µM (inactive) | > 100 µM (inactive) | > 100 µM (inactive) | > 100 µM (inactive) | > 100 µM (inactive) | > 100 µM (inactive) | > 100 µM (inactive)
O=C(ON=c1c2ccccc2ccc2ccccc12)c1ccccc1 | 22.3 µM (inactive) | 18.4 µM (inactive) | 22 µM (inactive) | 56 µM (inactive) | 22.9 µM (inactive) | 6.28 µM (inactive) | 40.1 µM (inactive) | 16.2 µM (inactive) | 17.9 µM (inactive) | 35.6 µM (inactive) | 37.5 µM (inactive) | 30.3 µM (inactive) | 22.9 µM (inactive) | > 75.9 µM (inactive) | 22.2 µM (inactive) | 24 µM (inactive) | 43.2 µM (inactive) | 27.2 µM (inactive) | 26.2 µM (inactive)
CCOP(=O)(OCC)/C(C#N)=C(\C)c1ccco1 | > 10 µM (inactive) | > 10 µM (inactive) | > 10 µM (inactive) | > 10 µM (inactive) | > 10 µM (inactive) | > 10 µM (inactive) | > 10 µM (inactive) | > 10 µM (inactive) | > 10 µM (inactive) | > 10 µM (inactive) | > 10 µM (inactive) | > 10 µM (inactive) | > 10 µM (inactive) | > 10 µM (inactive) | > 10 µM (inactive) | > 10 µM (inactive) | > 10 µM (inactive) | > 10 µM (inactive) | > 10 µM (inactive)
CSc1nc2c(=O)n(-c3ccccc3)c(=S)n(-c3ccccc3)c2s1 | 31.1 µM (inactive) | 82 µM (inactive) | 42 µM (inactive) | 81.3 µM (inactive) | 49.2 µM (inactive) | > 100 µM (inactive) | > 100 µM (inactive) | – | 34.4 µM (inactive) | 65 µM (inactive) | > 100 µM (inactive) | > 100 µM (inactive) | 64.1 µM (inactive) | 42.1 µM (inactive) | 29.2 µM (inactive) | > 100 µM (inactive) | > 100 µM (inactive) | 37.9 µM (inactive) | 25.4 µM (inactive)
O=C1O[C@]2(c3ccccc3)C(c3ccccc3)=C[C@]2(C(=O)c2ccccc2)C1=O | 29.9 µM (inactive) | 28.9 µM (inactive) | 34 µM (inactive) | 42.4 µM (inactive) | 32.3 µM (inactive) | 5.98 µM (inactive) | 39.1 µM (inactive) | 29.8 µM (inactive) | 0.05 µM (active) | 38 µM (inactive) | 33.7 µM (inactive) | 1.12 µM (inactive) | 65.2 µM (inactive) | 27 µM (inactive) | 39.2 µM (inactive) | 28.4 µM (inactive) | 27.1 µM (inactive) | 33.4 µM (inactive) | 24 µM (inactive)
CCCCCc1cc2cc3c(c(O)c2c(=O)[nH]1)C1(CC3)C(=O)c2c(O)c3c(c(O)c2C1=O)C(=O)C(OC)=CC3=O (stereo not drawn) | 1.45 µM (inactive) | 0.662 µM (active) | 3.61 µM (inactive) | 2.61 µM (inactive) | 0.479 µM (active) | 0.421 µM (active) | 0.568 µM (active) | 1.24 µM (inactive) | 0.877 µM (active) | 0.946 µM (active) | 0.701 µM (active) | 0.239 µM (active) | 0.524 µM (active) | – | 1.53 µM (inactive) | 0.311 µM (active) | 0.863 µM (active) | 0.877 µM (active) | 0.263 µM (active)
S=C(Nc1cccc(C2(N3CCCCC3)CCCCC2)c1)Nc1cccc(C2(N3CCCCC3)CCCCC2)c1 | 27.2 µM (inactive) | 12.7 µM (inactive) | 39.2 µM (inactive) | > 100 µM (inactive) | 15.6 µM (inactive) | 14.9 µM (inactive) | 26.9 µM (inactive) | 18.9 µM (inactive) | 13.6 µM (inactive) | 36.8 µM (inactive) | > 100 µM (inactive) | 19.5 µM (inactive) | 20.7 µM (inactive) | 2.69 µM (inactive) | 38.9 µM (inactive) | 31.3 µM (inactive) | 18.7 µM (inactive) | 31.6 µM (inactive) | 10.3 µM (inactive)
CCOC(=O)CCC(NC(=O)c1ccc(Oc2nc3ccc(C(F)(F)F)cc3nc2-c2ccccc2)cc1)C(=O)OCC (stereo not drawn) | 4.32 µM (inactive) | 28.6 µM (inactive) | 4.82 µM (inactive) | 15 µM (inactive) | 8.13 µM (inactive) | > 100 µM (inactive) | > 58.3 µM (inactive) | 23.1 µM (inactive) | 15.7 µM (inactive) | 6.55 µM (inactive) | 16.8 µM (inactive) | > 42.2 µM (inactive) | 14.2 µM (inactive) | 15.1 µM (inactive) | 3.33 µM (inactive) | > 41.5 µM (inactive) | 47.1 µM (inactive) | > 50.7 µM (inactive) | 18.9 µM (inactive)
CC(C)(CN1CCCCC1)C(/C=C/c1ccc(Cl)cc1)=N\NC(=O)N/N=C(/C=C/c1ccc(Cl)cc1)C(C)(C)CN1CCCCC1 | 4.58 µM (inactive) | 2.3 µM (inactive) | 4.42 µM (inactive) | 6.68 µM (inactive) | 2.65 µM (inactive) | 2.33 µM (inactive) | 7.24 µM (inactive) | 3.53 µM (inactive) | 2.64 µM (inactive) | 5.46 µM (inactive) | 2.92 µM (inactive) | 3.44 µM (inactive) | 8.38 µM (inactive) | 10.5 µM (inactive) | 5.9 µM (inactive) | 4.02 µM (inactive) | 3.21 µM (inactive) | 3.85 µM (inactive) | 2.38 µM (inactive)
O=C1C=CC2(C=C1)O[C@H](CCc1ccccc1)[C@@H](CCc1ccccc1)O2 | > 100 µM (inactive) | 12.3 µM (inactive) | 61.2 µM (inactive) | > 100 µM (inactive) | > 100 µM (inactive) | > 100 µM (inactive) | > 100 µM (inactive) | > 100 µM (inactive) | 24.3 µM (inactive) | 61.8 µM (inactive) | > 100 µM (inactive) | 76.4 µM (inactive) | > 100 µM (inactive) | > 100 µM (inactive) | > 100 µM (inactive) | > 100 µM (inactive) | > 100 µM (inactive) | > 100 µM (inactive) | 21.9 µM (inactive)
Nc1nc(Cl)cc(NCC2(O)CC2)n1 | > 100 µM (inactive) | > 100 µM (inactive) | > 100 µM (inactive) | > 100 µM (inactive) | > 100 µM (inactive) | > 100 µM (inactive) | > 100 µM (inactive) | > 100 µM (inactive) | > 100 µM (inactive) | > 100 µM (inactive) | > 100 µM (inactive) | > 100 µM (inactive) | > 100 µM (inactive) | > 100 µM (inactive) | > 100 µM (inactive) | > 100 µM (inactive) | > 100 µM (inactive) | > 100 µM (inactive) | > 100 µM (inactive)
Cn1c2cn[nH]c(=O)c2c2ccc3ccccc3c21 | 36.1 µM (inactive) | 21.9 µM (inactive) | 13.1 µM (inactive) | 28.8 µM (inactive) | 15.4 µM (inactive) | 85.5 µM (inactive) | 51.2 µM (inactive) | 22.4 µM (inactive) | 19.3 µM (inactive) | 22.6 µM (inactive) | 21.6 µM (inactive) | > 100 µM (inactive) | > 100 µM (inactive) | 49.8 µM (inactive) | 11.9 µM (inactive) | 30.2 µM (inactive) | 20 µM (inactive) | 44.6 µM (inactive) | 10.6 µM (inactive)
